# Measured values taken from patent publication US20050042244A1, “Method of controlling acarian and device for use in the same” (KURARAY CO LTD, priority 2002, published 2005).
# Columns and labels:
# [1] = tested on: Dermatophagoides pteronyssinus; test: Repellence test method (invasion preventive method); assay type: in vivo; conditions: 1.0 g/m^2; for number of Acarina, 1 day later: untreated control 65; for number of Acarina, 2 days later: untreated control 132; for number of Acarina, 3 days later: untreated control 140
# Method: The repellence rates of the isomer of farnesylacetone and phytone under 1.0 g/m^2 conditions for a kind of Dermatophagoides pteronyssinus were determined by the repellence test method (invasion preventive method: “Processing Technique” vol. 33, No. 2, pp. 153-155 (1998) “titled: Acarina repellent-processed product repellence test basic manual” (Apareru Seihin-tou Hinshitsu Seinou Taisaku Kyougikai). The results are shown in Table 1 below. […]
# human = test: Odor and effect on human of sampled gas containing farnesylacetone; conditions: gas containing 20,000 μg/L farnesylacetone
# Method: Farnesylacetone (1 mL) was placed in a 50 mL sample bottle, and a large magnetic stirring bar capable of rotating the air as well was placed therein. The bottle was placed neck-deep in a water bath at 60° C. with rotation, and heated for 1 hr to fill the inside of the sample bottle with farnesylacetone vapor. Thereafter, the gas in the sample bottle was taken by 5 mL with a gas tight syringe, and using gas chromatography with an FID detector, the concentration of farnesylacetone was measured by an absolute calibration method. […] Almost simultaneously, the gas (5 mL) in the sample bottle was taken again, a propeller was set in a 10 L beaker, the gas was added into the sealed beaker, the air in the beaker was stirred with the propeller for 10 min to dilute the gas 2,000-fold, whereby gas containing 0.01 μg/L farnesylacetone was obtained. […]
# Acarina = test: Repellence test with supplied gas containing 0.001 μg/L farnesylacetone in modified glass plate test apparatus; assay type: in vivo; conditions: gas containing 0.001 μg/L farnesylacetone at 1 mL/min; 37±1° C., 75±5% Rh; 4 hr
# Method: A 2L flask containing the gas containing 0.001 μg/L farnesylacetone prepared in the same manner as in Reference Example 1 was equipped with a Teflon® tube (inner diameter 2 mm) for discharging the gas containing farnesylacetone and a Teflon® tube for charging water into the container using a metering pump, whereby an apparatus to send out (supply) the gas containing farnesylacetone at 1 mL/min by introducing water into the flask at 1 mL/min was manufactured. […]
# Then the test apparatus was placed in a room with constant temperature and humidity at 37±1° C., 75±5% Rh, and the apparatus was operated for 3 hr for filling the test section with the above-mentioned concentration of farnesylacetone, after which an Acarina medium containing 10000 live Acarina were inserted from the gap of the lid and left standing for 4 hr. Then, the number of Acarina that invaded into the feed for attraction in each part C of the test section side and the control section side was counted. […] The number of Acarina floating in the upper layer was counted. The repellence rate was determined by the following formula and found to be 80%. […]
# [2] = tested on: Dermatophagoides pteronyssinus; test: Acarina repellence test by improved glass tube method; assay type: in vivo; conditions: filter paper that absorbed farnesylacetone (0.1 g); 37±1° C., 75±5% Rh, 48 hr; gas concentration 5 μg/L
# From the text: The “glass tube method” known as one of the repellence tests for Acarina repellent-processed fibers was modified and used for a repellence test.
# In the L-shaped glass tube in the test section was fixed filter paper with a two-sided tape inside the glass tube at part D, a test sample (filter paper that absorbed farnesylacetone (0.1 g)) was placed, and the glass tube opening on the D side was sealed with an airtight PARAFILM. Then, a medium containing 10,000 live Acarina (Dermatophagoides pteronyssinus) were placed in part A of the L-shaped glass Lube, and the glass end on the A side was sealed with a high density fabric capable of preventing passage of Acarina while maintaining air permeability. This test apparatus was stood still in a container maintained at 37±1° C., 75±5% Rh for 48 hr. […] The farnesylacetone concentration of the gas in part D was measured by gas chromatography. […]
# Subsequently, the feed for attraction in part C was taken out, and the number of Acarina that invaded into the feed for attraction was counted by the following method. […] The number of Acarina floating in the upper layer was counted. […] The repellence rate of the test sample was determined by the following formula and found to be 98%. […]
# [3] = Measurement of farnesylacetone concentration in the air (gas chromatography, FID, absolute calibration); assay type: physicochemical; conditions: for farnesylacetone concentration in gas of sample bottle: 1 hr
# Method: measurement of farnesylacetone concentration in the air
# Farnesylacetone (1 mL) was placed in a 50 mL sample bottle, and a large magnetic stirring bar capable of rotating the air as well was placed therein. The bottle was placed neck-deep in an oil bath at 130° C. with rotation, and heated for 1 hr to saturate the inside of the sample bottle with farnesylacetone vapor. Thereafter, the gas in the sample bottle was taken by 5 mL with a gas tight syringe, and using gas chromatography with an FID detector, the concentration of farnesylacetone was measured by the absolute calibration method.
# Farnesylacetone (1 mL) was placed in a 50 mL sample bottle, and a large magnetic stirring bar capable of rotating the air as well was placed therein. The bottle was placed neck-deep in a water bath at 60° C. with rotation, and heated for 1 hr to fill the inside of the sample bottle with farnesylacetone vapor. Thereafter, the gas in the sample bottle was taken by 5 mL with a gas tight syringe, and using gas chromatography with an FID detector, the concentration of farnesylacetone was measured by an absolute calibration method. […] Almost simultaneously, the gas (5 mL) in the sample bottle was taken again, a propeller was set in a 10 L beaker, the gas was added into the sealed beaker, the air in the beaker was stirred with the propeller for 10 min to dilute the gas 2,000-fold, whereby gas containing 0.01 μg/L farnesylacetone was obtained. The diluted gas (200 mL) was sampled with a syringe, a propeller was set in a 2 L flask, the gas was added into the sealed flask, the air in the beaker was stirred with the propeller for 10 min to further dilute the gas 10-fold, whereby gas containing 0.001 μg/L farnesylacetone was obtained.
# Dermatophagoides farinae = test: Acarina repellence test by improved invasion prevention method (coated lid, vapor); assay type: in vivo; conditions: 25° C., 1 day
# Method: The invasion prevention method was modified and a repellence test was performed.
# As a lid to cover this box (4, 4′), two glass plates (length 5.5 cm, width 6 cm, thickness 1.3 mm) were prepared.
# An ethanol solution of farnesylacetone (1%, 100 mg) was coated on the surface of one (test section side) of the two lids to cover the test box, and ethanol was air dried for 10 min. Then, a sample for Acarina attraction (50 mg) each was placed on both ends of the test box in the longitudinal direction, and the above-mentioned farnesylacetone-coated lid (4′) alone was placed, such that the surface coated with farnesylacetone faced the inside of the box. The box was placed in an incubator at 37° C. for 60 min until the farnesylacetone vapor filled the test section side of the test box. […] Thereafter, the test container was taken out, the number of Acarina that invaded into the feeds in the test section side and the control section side (50 and 1100, respectively, the rest of the Acarina fled) was counted. The repellence rate was determined by the following formula and found to be 95%. The concentration of farnesylacetone filled in the air at 37° C. was measured in the same manner as in Reference Example 1 and assumed to be 5 μg/L. Repellence rate (%)=(1− number of Acarina that invaded the test section/number of Acarina that invaded the control section)×100 […]
SMILES,"repellence rate, 1 day later [1]","repellence rate, 2 days later [1]","repellence rate, 3 days later [1]","number of Acarina, 1 day later [1]","number of Acarina, 2 days later [1]","number of Acarina, 3 days later [1]",odor and effect of sampled gas on human (human),Repellence rate (Acarina),Repellence rate [2],farnesylacetone concentration in gas of sample bottle ([3]; 60° C. water bath),"farnesylacetone concentration in gas of sample bottle ([3]; 130° C. oil bath, saturated vapor)","farnesylacetone concentration of the gas in part D ([3]; L-shaped glass tube of Example 1, after 48 hr at 37±1° C.)","concentration of farnesylacetone filled in the air ([3]; at 37° C., test box of Example 2)","number of Acarina that invaded into the feed in the test section side (Dermatophagoides farinae; 50,000 released, control section side 1100)","Repellence rate (Dermatophagoides farinae; lid coated with 1% ethanol solution (100 mg), vapor only, 5 μg/L)"
"CC(=O)CCC=C(C)CCC=C(C)CCC=C(C)C [cis-cis rich farnesylacetone, farnesylacetone]",92.3%,88.6%,79.3%,5 Acarina,15 Acarina,29 Acarina,–,–,–,–,–,–,–,–,–
CC(=O)CC/C=C(\C)CC/C=C(\C)CCC=C(C)C [farnesylacetone],–,–,–,–,–,–,"had a strong odor, caused cough when inhaled in a large amount, and provoked uncomfortable feeling in human",80%,98%,20 µg/L,"20,000 μg/L",~5 µg/L,~5 ng/mL,50,95%
CC(=O)CCCC(C)CCCC(C)CCCC(C)C (stereo not drawn) [phytone],89.2%,90.9%,83.6%,7 Acarina,12 Acarina,23 Acarina,–,–,–,–,–,–,–,–,–
"CC(=O)CCC=C(C)CCC=C(C)CCC=C(C)C [trans-trans farnesylacetone, farnesylacetone]",87.7%,90.2%,82.9%,8 Acarina,13 Acarina,24 Acarina,–,–,–,–,–,–,–,–,–
